Where “and” joins values, the source holds several entries; their conditions need not be identical. Equal entries are not always repeated. Entries after “also recorded” stand apart in the source; their conditions may differ. Where two headings read alike, the source gives them in different places.
Assays:
[1] = target: dog MDR1 wt (canine MDR1 carrier) (Canis lupus familiaris, UniProt Q4PLA8); test: Rh123 efflux inhibition (IC50) in stably transfected MDR1-HEK293 cells, dog MDR1 wt; conditions: for IC50: IC50, inhibition of Rh123 efflux, dog MDR1 wt, 5 μM Rh123, HEK293 after tetracycline treatment, one value per independent experiment (two experiments)
Chain of dog MDR1 wt (canine MDR1 carrier) (Q4PLA8 entry or part of it): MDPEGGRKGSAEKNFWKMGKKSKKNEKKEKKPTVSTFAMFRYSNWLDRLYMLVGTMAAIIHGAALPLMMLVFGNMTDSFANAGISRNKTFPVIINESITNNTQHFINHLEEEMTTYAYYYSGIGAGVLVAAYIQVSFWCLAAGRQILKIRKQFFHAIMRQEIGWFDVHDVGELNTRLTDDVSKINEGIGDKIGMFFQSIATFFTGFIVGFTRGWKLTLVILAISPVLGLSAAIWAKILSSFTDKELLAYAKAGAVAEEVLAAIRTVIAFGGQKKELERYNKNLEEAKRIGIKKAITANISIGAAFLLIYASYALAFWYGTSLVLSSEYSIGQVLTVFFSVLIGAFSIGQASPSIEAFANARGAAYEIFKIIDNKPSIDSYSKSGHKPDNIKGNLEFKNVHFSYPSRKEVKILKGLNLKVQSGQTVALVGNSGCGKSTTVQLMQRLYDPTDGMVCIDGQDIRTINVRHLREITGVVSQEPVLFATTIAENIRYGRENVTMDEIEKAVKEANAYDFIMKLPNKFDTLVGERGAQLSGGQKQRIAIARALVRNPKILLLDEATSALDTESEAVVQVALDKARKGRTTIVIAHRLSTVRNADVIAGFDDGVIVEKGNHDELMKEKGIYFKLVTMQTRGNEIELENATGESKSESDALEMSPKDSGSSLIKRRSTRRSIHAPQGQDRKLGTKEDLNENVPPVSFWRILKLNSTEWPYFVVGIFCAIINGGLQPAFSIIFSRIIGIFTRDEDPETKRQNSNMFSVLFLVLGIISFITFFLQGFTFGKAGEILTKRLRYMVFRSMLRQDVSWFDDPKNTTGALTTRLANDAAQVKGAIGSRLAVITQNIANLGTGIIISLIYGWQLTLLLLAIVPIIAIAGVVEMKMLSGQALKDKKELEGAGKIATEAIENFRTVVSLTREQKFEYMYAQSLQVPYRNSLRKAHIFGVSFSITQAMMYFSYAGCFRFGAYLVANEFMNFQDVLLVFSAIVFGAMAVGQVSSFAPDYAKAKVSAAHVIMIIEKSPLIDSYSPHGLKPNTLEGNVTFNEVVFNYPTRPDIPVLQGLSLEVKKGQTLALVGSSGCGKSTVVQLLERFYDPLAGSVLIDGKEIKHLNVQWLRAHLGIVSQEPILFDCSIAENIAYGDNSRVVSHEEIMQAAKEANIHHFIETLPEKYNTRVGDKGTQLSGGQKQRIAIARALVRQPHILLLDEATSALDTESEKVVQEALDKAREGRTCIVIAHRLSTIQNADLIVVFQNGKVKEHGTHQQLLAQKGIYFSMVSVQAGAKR
Protocol: (§1) Transport inhibition experiments were performed with 5 μM Rh123 as the probe substrate in stably transfected MDR1‐HEK293 cells. Cells were seeded onto polylysine‐coated 96‐well plates and gene expression was induced with tetracycline treatment at 1 μg/mL. […] Subsequently, the PBS was replaced with 80 μL of transport buffer again containing the respective inhibitor or solvent alone, and cells were further incubated for 60 min at 37°C for the efflux phase.
(§2) All graphs and diagrams were generated with GraphPad Prism 6 (GraphPad Software Inc., San Diego, CA, USA). The IC50 values were determined by nonlinear regression analysis using the equation log (inhibitor) versus response—variable slope settings. Statistical analyses were performed using GraphPad Prism 6. As detailed in the figure legends, either Student's t‐test or two‐way ANOVA was applied, as appropriate.

[2] = target: cat MDR1 wt (feline MDR1 carrier) (Felis catus, UniProt D2KKF0); test: Rh123 efflux inhibition (IC50) in stably transfected MDR1-HEK293 cells, cat MDR1 wt; conditions: IC50, inhibition of Rh123 efflux, 5 μM Rh123, HEK293 after tetracycline treatment, one value per independent experiment (two experiments)
Chain of cat MDR1 wt (feline MDR1 carrier) (D2KKF0 entry or part of it): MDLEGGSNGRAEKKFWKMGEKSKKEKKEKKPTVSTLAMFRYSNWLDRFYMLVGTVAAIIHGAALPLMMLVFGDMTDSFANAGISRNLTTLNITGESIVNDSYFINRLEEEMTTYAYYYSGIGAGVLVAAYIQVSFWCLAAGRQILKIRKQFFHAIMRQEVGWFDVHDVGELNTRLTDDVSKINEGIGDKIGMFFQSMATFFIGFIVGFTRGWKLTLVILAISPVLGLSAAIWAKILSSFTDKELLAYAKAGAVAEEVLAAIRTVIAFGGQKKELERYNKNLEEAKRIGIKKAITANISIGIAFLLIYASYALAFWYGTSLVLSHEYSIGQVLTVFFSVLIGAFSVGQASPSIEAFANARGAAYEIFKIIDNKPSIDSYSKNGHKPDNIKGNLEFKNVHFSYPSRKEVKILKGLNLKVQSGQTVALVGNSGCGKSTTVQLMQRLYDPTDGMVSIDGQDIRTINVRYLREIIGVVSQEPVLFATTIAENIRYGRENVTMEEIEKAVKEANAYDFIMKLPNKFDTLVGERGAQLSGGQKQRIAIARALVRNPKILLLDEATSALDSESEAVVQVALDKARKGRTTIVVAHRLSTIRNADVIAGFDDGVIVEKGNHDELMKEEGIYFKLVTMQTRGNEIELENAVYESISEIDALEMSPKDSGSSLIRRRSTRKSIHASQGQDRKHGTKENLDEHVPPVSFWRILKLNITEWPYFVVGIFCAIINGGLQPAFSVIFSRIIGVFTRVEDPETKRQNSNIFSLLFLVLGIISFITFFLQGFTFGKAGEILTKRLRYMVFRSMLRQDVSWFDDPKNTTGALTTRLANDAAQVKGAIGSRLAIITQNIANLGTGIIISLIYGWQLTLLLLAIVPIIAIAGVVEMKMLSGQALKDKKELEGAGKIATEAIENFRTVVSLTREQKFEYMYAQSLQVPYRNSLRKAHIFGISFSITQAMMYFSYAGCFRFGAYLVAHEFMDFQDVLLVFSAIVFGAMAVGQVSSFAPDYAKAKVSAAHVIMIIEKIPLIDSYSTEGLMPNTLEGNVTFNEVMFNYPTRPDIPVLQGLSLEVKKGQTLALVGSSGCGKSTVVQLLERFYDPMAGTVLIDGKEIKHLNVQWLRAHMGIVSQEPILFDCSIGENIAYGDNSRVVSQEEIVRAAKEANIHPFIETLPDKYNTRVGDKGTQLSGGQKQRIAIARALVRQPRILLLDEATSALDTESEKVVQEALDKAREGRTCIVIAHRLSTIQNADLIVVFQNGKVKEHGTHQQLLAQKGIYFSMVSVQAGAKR
Protocol: as §1, §2

[3] = test system: wild-type MDR1 (P-glycoprotein) of dog and cat; test: Rh123 efflux inhibition in MDR1-HEK293 cells, stated for both wild-type MDR1 carriers together; conditions: dog and cat, IC50 range, inhibition of both wild-type MDR1 carriers (dog and cat), 5 μM Rh123, HEK293, range over both species and experiments
Protocol: as §1, §2

[4] = test system: wild-type MDR1 carriers of dog and cat; test: as above; conditions: analyzed inhibitor concentration range, highest 100 μM
Protocol: as §1, §2

[5] = test system: dogs with homozygous MDR1 gene mutation; conditions: cited from earlier work
MDR1 carrier = test system: MDR1 carrier; set-up: method as in Lespine et al. [2007]; conditions: membrane vesicles from DC-3F-/ADX MDR1-overexpressing cells; ref Lespine et al. [2007]; read-out: Ki, ATPase activity of the MDR1 carrier stimulated by verapamil; cited from earlier work
dog MDR1 wt = test: Rh123 transport experiment in HEK293 cells with/without tariquidar, dog MDR1 wt; format: cell-based; conditions: 1 μM TQD, 5 μM Rh123, HEK293
[6] = test system: MDR1 carrier (parent MDCKII, dog MDR1 wt and cat MDR1 wt MDCKII^MDR1ko cells); test: Transwell transport experiments in MDCKII cells with Rh123 and [3H]digoxin; format: cell-based; conditions: 1 μM TQD
Protocol: For transwell transport experiments in the MDCKII cell lines, 3 × 10^5 cells were seeded per 12‐mm/0.4 μm transwell membrane inserts (Sarstedt, Numbrecht, Germany). One day after seeding, the medium was changed. The transport experiments were performed 72 h after seeding and after reaching 100% confluence. Measurement of the transepithelial electrical resistance (TEER) was conducted on each well with the Millicell ERS‐2 electrical resistance system (Millipore) to confirm the integrity of the monolayer. Only cell monolayers that reached > 150 Ω cm^2 were used for the transport experiments. […] Fluorescence of Rh123 was detected with the GloMax plate reader. […] The amount of [^3H]digoxin in the samples was quantified by Tri‐Carb 2910TR Liquid Scintillation Analyzer (Perkin Elmer).
For all transwell experiments with Rh123 and [^3H]digoxin as the substrates, apparent permeability coefficients (P app, cm/s) and the efflux ratios (ER) were calculated as follows: Papp=V/A×C0×dQ/dt where “V” is the volume of the receiver chamber (1.5 or 0.5 mL), “A” is the surface area of the transwell inserts (being 1.1 cm^2), “C 0” is the initial concentration of the compound, and “dQ/dt” is the transport rate.
From the P app values of the AB and BA transport experiments, the ER was calculated as follows: [drawing 1]

cat MDR1 wt = test: Rh123 transport experiment in HEK293 cells with/without tariquidar, cat MDR1 wt; conditions: 1 μM TQD, 5 μM Rh123, HEK293
Protocol: Cells were seeded onto polylysine‐coated 24‐well plates. Gene expression was induced with 1 μg/mL tetracycline treatment. Cells were grown to confluence over 72 h at 37°C. […] After 30 min pre‐incubation, transport experiments were started by replacing the medium with transport buffer additionally containing 5 μM Rh123. The Rh123 uptake was stopped after 90 min by two‐times washing with ice‐cold PBS. Subsequently, the PBS was again replaced with 250 μL of DMEM as the transport buffer, with or without TQD, and the efflux phase lasted over 60 min at 37°C. Then, experiments were stopped by two‐times washing with ice‐cold PBS. Finally, cells were lysed with 500 μL of 1 N NaOH with 0.1% SDS. Cell‐associated fluorescence of Rh123 was quantified by GloMax microplate reader (Promega). Fluorescence was detected at 490 nm excitation and 510–570 nm emission. […] The absolute fluorescence units per well were normalized to the protein amount and expressed as relative fluorescence units (RFU)/μg protein.

[7] = stably transfected MDR1-HEK293 cells (tetracycline-induced), probe rhodamine 123 (Rh123), 5 μM

Row | SMILES | IC50 [1] | IC50 [2] | IC50 at 60 min [3] [µM] | IC50 at 60 min [3, 7] [µM] | also measured
1 | C/C=C/C[C@@H](C)C(=O)[C@H]1C(=O)N[C@@H](C(C)C)C(=O)N(C)CC(=O)N(C)[C@@H](CC(C)C)C(=O)N[C@@H](C(C)C)C(=O)N(C)[C@@H](CC(C)C)C(=O)N[C@@H](C)C(=O)N[C@H](C)C(=O)N(C)[C@@H](CC(C)C)C(=O)N(C)[C@@H](CC(C)C)C(=O)N(C)[C@@H](C(C)C)C(=O)N1C [PSC833, valspodar] | 0.66 µM and 0.95 µM | 1.5 µM | 1 to 2 |  | 
2 | O=C(CNC(=O)c1ccc(C2=NO[C@](c3cc(Cl)cc(C(F)(F)F)c3)(C(F)(F)F)C2)c2ccccc12)NCC(F)(F)F [afoxolaner] |  |  |  |  | Interaction with / inhibition of the MDR1 carriers from either species [4]: no detectable interaction; also recorded: no inhibition; Safety of oral administration ([5]; dogs with homozygous MDR1 gene mutation, monotherapy or in combination with milbemycin oxime, ref Drag et al. [2022]): safe
3 | CO[C@H]1C[C@H](O[C@H]2[C@H](C)O[C@@H](O[C@@H]3/C(C)=C/C[C@@H]4C[C@@H](C[C@]5(C=C[C@H](C)[C@@H](C6CCCCC6)O5)O4)OC(=O)[C@@H]4C=C(C)[C@@H](O)[C@H]5OC/C(=C\C=C\[C@@H]3C)[C@]54O)C[C@@H]2OC)O[C@@H](C)[C@@H]1O [doramectin] |  |  |  |  | Outcome of off-label treatment ([5]; dogs with homozygous MDR1 mutation, 0.6 mg/kg subcutaneous injection, ref Mealey et al. [2001], Hopper et al. [2008], Geyer and Janko [2012]): fatal cases of neurological toxicity
4 | Cc1cc(C2=NO[C@](c3cc(Cl)cc(Cl)c3)(C(F)(F)F)C2)ccc1C(=O)NCC(=O)NCC(F)(F)F [fluralaner] |  | 69.9 µM and > 100 µM |  |  | Inhibition of the canine MDR1 carrier ([1]; up to the maximum tested concentration of 100 μM): did not inhibit; Safety of oral administration ([5]; Collies with homozygous MDR1 gene mutation, ref Walther et al. [2014]): treatment safety without neurological toxicity
5 | Cc1cc(C2=NO[C@@](c3cc(Cl)c(Cl)c(Cl)c3)(C(F)(F)F)C2)sc1C(=O)NCC(=O)NCC(F)(F)F [lotilaner] | 23.2 µM and 10.9 µM | 17.5 µM and 10.9 µM |  | 11 to 23 | 
6 | CO/N=C1\C[C@]2(C[C@@H]3C[C@@H](C/C=C(\C)C[C@@H](C)/C=C/C=C4\CO[C@@H]5[C@H](O)C(C)=C[C@@H](C(=O)O3)[C@]45O)O2)O[C@H](/C(C)=C/C(C)C)[C@H]1C [moxidectin] | 21.2 µM and 15.2 µM | 9.2 µM and 8.4 µM |  | 8 to 21 | 
7 | CS(=O)(=O)CC(=O)N1CC2(C1)OCc1cc(C3=NO[C@@](c4cc(Cl)c(F)c(Cl)c4)(C(F)(F)F)C3)ccc12 [sarolaner] | 41.6 µM and 30 µM | 56.5 µM and 35.1 µM | 30 to 57 |  | 
8 | CO[C@H]1C[C@H](O[C@@H]2/C(C)=C/C[C@@H]3C[C@@H](C[C@]4(CC[C@H](C)[C@@H](C5CCCCC5)O4)O3)OC(=O)[C@@H]3C=C(C)/C(=N/O)[C@H]4OC/C(=C\C=C\[C@@H]2C)[C@]43O)O[C@@H](C)[C@@H]1O [selamectin] | 21.5 µM and 15.7 µM | 14.3 µM and 10.3 µM | 10 to 22 |  | Ki (MDR1 carrier): 1 µM; Oral dose remaining without clinical symptoms of neurological toxicity ([5]; ivermectin-sensitive Collies, oral, ref Geyer and Janko [2012]): exceeding 15 mg/kg
9 | COc1cc2c(cc1OC)CN(CCc1ccc(NC(=O)c3cc(OC)c(OC)cc3NC(=O)c3cnc4ccccc4c3)cc1)CC2 [tariquidar] | 0.06 µM and 0.12 µM | 0.14 µM and 0.23 µM |  | 0.1 to 0.2 | Effect on Rh123 efflux activity of wild-type canine MDR1 (dog MDR1 wt): fully abolished; Effect on transcellular transport of [3H]digoxin ([6]; 1 μM [3H]digoxin, dog MDR1 wt and cat MDR1 wt cell lines): completely abolished; Effect on transcellular transport of Rh123 ([6]; 5 μM Rh123, dog MDR1 wt and cat MDR1 wt cell lines): completely abolished; Effect on Rh123 efflux activity of wild-type feline MDR1 (cat MDR1 wt): TQD‐sensitive reduction in Rh123 accumulation
